The experiment concerns M. tuberculosis isolates (Table 8). The experiment can be described thus: MTB isolates vs. antibiotic screen in the presence and absence of CB-18. Conditions: CB-18 17 μg/ml.

Entries after “also recorded” stand apart in the source; their conditions may differ. Counter-ions that a name gives are not always drawn.

For the compound `CCCCCCCCCCCCCCCCCC[N+](C)(C)CCCC(=O)[O-]` [CB-18, N-(3-carboxypropyl)-N,N-dimethyl-1-octadecanaminium, inner salt], the “CB-18 induced sensitivity to antibiotics tested” value (061-TBR (INH resistant)) is on record as “exacerbated in the presence of CB-18; also recorded: Minor, if any, CB-18 induced sensitivity to” and the “CB-18 induced sensitivity to antibiotics tested” value (896-BAL (multi drug resistant: INH, RIF & PZA)) is given as “Minimal, if any, CB-18 induced sensitivity to”.

The values above are taken from patent US7067500B2, “Betaines as adjuvants to susceptibility testing and antimicrobial therapy” (priority 1997, dated 2006).
